Experiment: Inhibition of human CES2A using fluorescein diacetate as substrate preincubated for 3 mins followed by substrate addition measured after 30 mins by fluorescence based assay

Row | Structure (SMILES) | IC50
1 | CCN(C)C(=O)Oc1ccc(C(=O)N2CCc3ccccc3C2)cc1OC | 2.06 nM
2 | CCN(C)C(=O)Oc1ccc(/C=C/C(=O)N2CCC(c3ccccc3)CC2)cc1OC | 3.18 nM
3 | CCN(C)C(=O)Oc1ccc(CCC(=O)N2CCc3ccccc3C2)cc1 | 7.39 nM
4 | CCN(C)C(=O)Oc1ccc(CCC(=O)N2CCc3ccccc3C2)cc1OC | 6.05 nM
5 | CCN(C)C(=O)Oc1ccc(C(=O)N2CCC(CCCc3ccccc3)CC2)cc1OC | 2.94 nM
6 | CCN(C)C(=O)Oc1ccc(C(=O)N2CCN(Cc3ccccc3)CC2)cc1OC | 5.93 nM
7 | CCN(C)C(=O)Oc1ccc(C(=O)N2CCC(Cc3ccccc3)CC2)cc1OCC1CC1 | 1.02 nM
8 | CCN(C)C(=O)Oc1ccc(CCC(=O)N2CCC(Cc3ccccc3)CC2)cc1OC | 3.31 nM
9 | CCN(C)C(=O)Oc1ccc(C(=O)N2CCC(c3ccccc3)CC2)cc1OC | 1.47 nM
10 | CCOc1cc(C(=O)N2CCC(Cc3ccccc3)CC2)ccc1OC(=O)N(C)CC | 1.13 nM
11 | CCN(C)C(=O)Oc1ccc(CCC(=O)N2CCN(Cc3ccccc3)CC2)cc1OC | 57.3 nM
12 | CCN(CC)C(=O)Oc1ccc(CCC(=O)N2CCC(Cc3ccccc3)CC2)cc1OC | 34 nM
13 | CN(C)C(=O)C(CCN1CCC(O)(c2ccc(Cl)cc2)CC1)(c1ccccc1)c1ccccc1 [LOPERAMIDE] | 404 nM
14 | CCN(C)C(=O)Oc1ccc(C(=O)N2CCC(Cc3ccc(F)cc3)CC2)cc1OC | 1.31 nM
15 | COc1cc(CCC(=O)N2CCC(Cc3ccccc3)CC2)ccc1OC(=O)N(C)C | 4.1 nM
16 | CCN(C)C(=O)Oc1ccc(CCC(=O)N2CCC(c3ccccc3)CC2)cc1OC | 4.85 nM
17 | COc1cc(CCC(=O)N2CCC(Cc3ccccc3)CC2)ccc1OC(=O)N1CCOCC1 | 7.27 nM
18 | CCN(C)C(=O)Oc1ccc(/C=C/C(=O)N2CCC(Cc3ccccc3)CC2)cc1 | 1.46 nM
19 | CCN(C)C(=O)Oc1ccc(C(=O)N2CCC(C(=O)c3ccc(F)cc3)CC2)cc1OC | 10.3 nM
20 | CNC(=O)COc1ccc(C(C)=O)cc1OC | 462 nM
21 | CCN(CC)C(=O)COc1ccc(C(C)=O)cc1OC | 460 nM

Reference: ChEMBL document CHEMBL6103648, “AI-Driven Discovery of Highly Specific and Efficacious hCES2A Inhibitors for Ameliorating Irinotecan-Triggered Gut Toxicity” (J Med Chem, 2025)
